Values of other authors in EP4684794A1, “TECHNICAL FORMULATION FOR ACTIVE ABSORPTION OF AMINO ACIDS BY HUMAN REPRODUCTIVE SYSTEM” (Xu, Haohan, priority 2023, dated 2024).

Experiments:
[1] = test system: bone marrow macrophages; conditions: blocking the NF- κ B and MAPK signaling pathways
[2] = test system: MC3T3-E1 osteoblasts; conditions: platelet-derived growth factor-BB, SAPK/JNK pathway

## O=C(O[C@@H]1Cc2c(O)cc(O)cc2O[C@@H]1c1cc(O)c(O)c(O)c1)c1cc(O)c(O)c(O)c1 [EGCG, epigallocatechin gallate]
Animal experiments
  teratogenic or developmental toxicity: no teratogenic or developmental toxicity was observed
Mouse body fluid analyses
  genotoxicity: no genotoxic effects
[1]
  LPS-mediated pro-inflammatory gene expression: may prevent LPS-mediated pro-inflammatory gene expression
[2]
  expression of IL-6 and IL-6 mRNA: reducing the expression of IL-6 and IL-6 mRNA
